ChEMBL document CHEMBL4725366, “Expanding the scope of synthetic 1,2,4-trioxanes towards Trypanosoma cruzi and Leishmania donovani” (Bioorg Med Chem Lett, 2020)
One block for each compound: values may come before it.

How the values were obtained:
[1] = Selectivity index, ratio of CC50 for African green monkey Vero cells to IC50 for Leishmania donovani promastigotes; format: toxicity; conditions: read-out: Ratio CC50/IC50
Leishmania donovani [2] = assay: Potency index, ratio of Artemisinin IC50 to test compound IC50 for antileishmanial activity against Leishmania donovani promastigotes; format: functional
Vero = assay: Cytotoxicity against African green monkey Vero cells up to 4.76 ug/ml by neutral red assay; format: cell-based; conditions: chlorocebus sabaeus, dose <=4.76 µg/ml
Leishmania donovani [3] = assay: Antileishmanial activity against Leishmania donovani promastigotes; format: functional, organism-based
Trypanosoma cruzi [4] = assay: Potency index, ratio of benznidazole IC50 to test compound IC50 for antitrypanosomal activity against Trypanosoma cruzi trypomastigotes; format: functional
Trypanosoma cruzi [5] = assay: Potency index, ratio of artesunate IC50 to test compound IC50 for antitrypanosomal activity against Trypanosoma cruzi trypomastigotes; format: functional
Trypanosoma cruzi [6] = assay: Trypanocidal activity against Trypanosoma cruzi epimastigotes at 100 uM measured after 24 hrs; format: functional
Trypanosoma cruzi [7] = assay: Antitrypanosomal activity against Trypanosoma cruzi trypomastigotes; format: functional, organism-based
Trypanosoma cruzi [8] = assay: Antitrypanosomal activity against Trypanosoma cruzi epimastigotes; format: functional, organism-based
[9] = Selectivity index, ratio of CC50 for African green monkey Vero cells to IC50 for Trypanosoma cruzi epimastigotes; format: toxicity; conditions: read-out: Ratio CC50/IC50
[10] = Selectivity index, ratio of CC50 for African green monkey Vero cells to IC50 for Trypanosoma cruzi trypomastigotes; format: toxicity; conditions: read-out: Ratio CC50/IC50
[11] = Cytotoxicity against African green monkey Vero cells by neutral red assay; format: cell-based; conditions: chlorocebus sabaeus

SMILES: COC(=O)c1ccc(/C=C/[C@]23C=C[C@@]4(OO2)C(C)(C)CCC(OC(C)=O)[C@]4(C)O3)cc1 (mixture of isomers)
selectivity ratio [1]: 1.59
Ratio IC50 (Leishmania donovani [2]): >10
Activity (Vero): Non-Toxic
IC50 (Leishmania donovani [3]): 7.01 µM
IC90 (Leishmania donovani [3]): 15.2 µM

SMILES: CC(=O)O[C@@H]1CCC(C)(C)[C@@]23CC[C@@](C)(OO2)O[C@@]13C (racemic)
IC50 (Leishmania donovani [3]): > 100 µM
IC90 (Leishmania donovani [3]): > 100 µM

SMILES: CC1(C)CC[C@@H](O)[C@]2(C)O[C@@]3(/C=C/c4ccc(C(=O)NCc5ccccc5)cc4)C=C[C@@]12OO3 (racemic)
selectivity ratio [1]: 1.36
Ratio IC50 (Trypanosoma cruzi [4]): 13
Ratio IC50 (Trypanosoma cruzi [5]): 20
Activity (Trypanosoma cruzi [6]): 100%
IC50 (Trypanosoma cruzi [7]): 0.62 µM
IC50 (Trypanosoma cruzi [8]): 2.66 µM
selectivity ratio [9]: ≥ 3.88
Ratio IC50 (Leishmania donovani [2]): >10
Activity (Vero): Non-Toxic
selectivity ratio [10]: ≥ 16.6
IC50 (Leishmania donovani [3]): 7.59 µM
IC90 (Leishmania donovani [3]): 15.2 µM

SMILES: CC1(C)CCC[C@]2(C)O[C@@]3(C)C=C[C@@]12OO3 (racemic)
IC50 (Leishmania donovani [3]): > 100 µM
IC90 (Leishmania donovani [3]): > 100 µM

SMILES: CC1(C)CC[C@H](O)[C@]2(C)O[C@@]3(C)C=C[C@@]12OO3 (racemic)
IC50 (Leishmania donovani [3]): > 100 µM
IC90 (Leishmania donovani [3]): > 100 µM

SMILES: CC1(C)CCC(=O)[C@]2(C)O[C@@]3(C)CC[C@@]12OO3 (racemic)
IC50 (Leishmania donovani [3]): > 100 µM
IC90 (Leishmania donovani [3]): > 100 µM

IC50 (Trypanosoma cruzi [7]): 10.2 µM
IC50 (Trypanosoma cruzi [8]): > 100 µM
IC50 (Leishmania donovani [3]): 5.39 µM
IC90 (Leishmania donovani [3]): 13.5 µM
SMILES: CC(=O)CCCC(C)(C)C(=O)/C=C/C(=O)/C=C/c1ccc(C(=O)NCc2ccccc2)cc1
selectivity ratio [1]: 1.98
Ratio IC50 (Leishmania donovani [2]): >10
selectivity ratio [10]: ≥ 1.05

SMILES: COC(=O)c1ccc(/C=C/[C@]23C=C[C@@]4(OO2)C(C)(C)CCC[C@]4(C)O3)cc1 (racemic)
selectivity ratio [1]: 1.54
Ratio IC50 (Trypanosoma cruzi [4]): 13
Ratio IC50 (Trypanosoma cruzi [5]): 10
Activity (Trypanosoma cruzi [6]): 100%
CC50 [11]: > 12.8 µM
IC50 (Trypanosoma cruzi [7]): 0.84 µM
IC50 (Trypanosoma cruzi [8]): 2.27 µM
selectivity ratio [9]: ≥ 5.56
Ratio IC50 (Leishmania donovani [2]): >10
selectivity ratio [10]: ≥ 15.3
IC50 (Leishmania donovani [3]): 8.38 µM
IC90 (Leishmania donovani [3]): 18.9 µM

SMILES: C[C@@H]1CC[C@H]2[C@@H](C)C(=O)O[C@@H]3O[C@@]4(C)CC[C@@H]1[C@]32OO4 [ARTEMISININ]
IC50 (Leishmania donovani [3]): > 100 µM

SMILES: CC1(C)CC[C@H](O)[C@]2(C)O[C@@]3(/C=C/c4ccc(C(=O)NCc5ccccc5)cc4)C=C[C@@]12OO3 (racemic)
selectivity ratio [1]: 2.69
CC50 [11]: ≥ 9.33 µM
Ratio IC50 (Leishmania donovani [2]): >10
IC50 (Leishmania donovani [3]): 3.47 µM
IC90 (Leishmania donovani [3]): 5.42 µM

IC90 (Leishmania donovani [3]): 5.29 µM
SMILES: N=C(N)c1ccc(OCCCCCOc2ccc(C(=N)N)cc2)cc1 [PENTAMIDINE]

IC50 (Trypanosoma cruzi [7]): 14.9 µM
IC50 (Trypanosoma cruzi [8]): 32.5 µM
SMILES: O=C(Cn1ccnc1[N+](=O)[O-])NCc1ccccc1 [BENZNIDAZOLE]

SMILES: COC(=O)c1ccc(/C=C/[C@]23C=C[C@@]4(OO2)C(C)(C)CC[C@@H](O)[C@]4(C)O3)cc1 (racemic)
selectivity ratio [1]: 2.38
CC50 [11]: > 11.1 µM
Ratio IC50 (Leishmania donovani [2]): >10
IC50 (Leishmania donovani [3]): 5.18 µM
IC90 (Leishmania donovani [3]): 15.5 µM

SMILES: CC1(C)CC[C@H](O)[C@]2(C)O[C@@]3(C)CC[C@@]12OO3 (racemic)
IC50 (Leishmania donovani [3]): > 100 µM
IC90 (Leishmania donovani [3]): > 100 µM

IC50 (Leishmania donovani [3]): 0.19 µM
IC90 (Leishmania donovani [3]): 0.41 µM
SMILES: C[C@@H]1[C@H](O)[C@@H](C)/C=C/C=C/C=C/C=C/C=C/C=C/C=C/[C@H](O[C@@H]2O[C@H](C)[C@@H](O)[C@H](N)[C@@H]2O)C[C@@H]2O[C@](O)(C[C@@H](O)C[C@@H](O)[C@H](O)CC[C@@H](O)C[C@@H](O)CC(=O)O[C@H]1C)C[C@H](O)[C@H]2C(=O)O [AMPHOTERICIN B]

SMILES: CC(=O)O[C@@H]1CCC(C)(C)[C@@]23C=C[C@@](C)(OO2)O[C@@]13C (racemic)
IC50 (Leishmania donovani [3]): > 100 µM
IC90 (Leishmania donovani [3]): > 100 µM

SMILES: CC1(C)CC=C[C@]2(C)O[C@@]3(C)CC[C@@]12OO3 (racemic)
IC50 (Leishmania donovani [3]): > 100 µM
IC90 (Leishmania donovani [3]): > 100 µM

SMILES: CC1(C)CC=C[C@]2(C)O[C@@]3(C)C=C[C@@]12OO3 (racemic)
IC50 (Leishmania donovani [3]): > 100 µM
IC90 (Leishmania donovani [3]): > 100 µM

SMILES: CC1(C)CC[C@@H](O)[C@]2(C)O[C@@]3(C)CC[C@@]12OO3 (racemic)
IC50 (Leishmania donovani [3]): > 100 µM
IC90 (Leishmania donovani [3]): > 100 µM

SMILES: CC1(C)CCC[C@]2(C)O[C@@]3(/C=C/c4ccc(C(=O)NCc5ccccc5)cc4)C=C[C@@]12OO3 (racemic)
selectivity ratio [1]: 4.33
Ratio IC50 (Trypanosoma cruzi [4]): 13
Ratio IC50 (Trypanosoma cruzi [5]): 10
Activity (Trypanosoma cruzi [6]): 100%
CC50 [11]: > 10.7 µM
IC50 (Trypanosoma cruzi [7]): 1.16 µM
IC50 (Trypanosoma cruzi [8]): 2.48 µM
selectivity ratio [9]: ≥ 4.3
Ratio IC50 (Leishmania donovani [2]): >10
selectivity ratio [10]: ≥ 9.21
IC50 (Leishmania donovani [3]): 2.47 µM
IC90 (Leishmania donovani [3]): 15.7 µM

IC50 (Trypanosoma cruzi [7]): 13 µM
IC50 (Trypanosoma cruzi [8]): 9.44 µM
IC50 (Leishmania donovani [3]): 12.1 µM
SMILES: C[C@H]1[C@H](OC(=O)CCC(=O)O)O[C@@H]2O[C@@]3(C)CC[C@H]4[C@H](C)CC[C@@H]1[C@@]24OO3 [ARTESUNATE]

SMILES: CC1(C)CC[C@@H](O)[C@]2(C)O[C@@]3(C)C=C[C@@]12OO3 (racemic)
IC50 (Leishmania donovani [3]): > 100 µM
IC90 (Leishmania donovani [3]): > 100 µM

SMILES: CC1(C)CCC(=O)[C@]2(C)O[C@@]3(C)C=C[C@@]12OO3 (racemic)
IC50 (Leishmania donovani [3]): > 100 µM
IC90 (Leishmania donovani [3]): > 100 µM

SMILES: CC(=O)O[C@H]1CCC(C)(C)[C@@]23C=C[C@@](C)(OO2)O[C@@]13C (racemic)
IC50 (Leishmania donovani [3]): > 100 µM
IC90 (Leishmania donovani [3]): > 100 µM
